Laboratory results published in US10214512B2, “Factor XIA inhibitors” (MERCK SHARP & DOHME CORP., priority 2015, dated 2019).
pKi: −log10 of the molar value.

Molecular target: purified human Factor XIa (Homo sapiens (Human), UniProt P03951)
Experiment: Factor XIa Assay
Assay type: biochemical
Conditions: purified human Factor XIa 40 pM; substrate Z-Gly-Pro-Arg-AFC 100 μM; 50 mM HEPES pH 7.4; read-out: Human FXIa Ki
Method: The effectiveness of a compound of the present invention as an inhibitor of Coagulation Factor XIa can be determined using a relevant purified serine protease, and an appropriate synthetic substrate. The rate of hydrolysis of the chromogenic or fluorogenic substrate by the relevant serine protease was measured both in the absence and presence of compounds of the present invention. Assays were conducted at rt or at 37° C. […] A decrease in the rate of fluorescence change in the presence of inhibitor is indicative of enzyme inhibition. Such methods are known to one skilled in the art. The results of this assay are expressed as the inhibitory constant, Ki.
Factor XIa determinations were made in 50 mM HEPES buffer at pH 7.4 containing 150 mM NaCl, 5 mM CaCl2, and 0.1% PEG 8000 (polyethylene glycol; JT Baker or Fisher Scientific). Determinations were made using purified human Factor XIa at a final concentration of 40 pM (Sekisui Diagnostics) and he synthetic substrate, Z-Gly-Pro-Arg-AFC, TFA salt (Sigma #C0980) at a concentration of 100 μM.
Times required to achieve equilibration between enzyme and inhibitor were determined in control experiments. Initial velocities of product formation in the absence (Vo) or presence of inhibitor (Vi) were measured. Assuming competitive inhibition, and that unity is negligible compared Km/[S], [I]/e, and [I]/e (where [S], [I], and e respectively represent the total concentrations, of substrate, inhibitor and enzyme), the equilibrium constant (Ki) for dissociation of the inhibitor from the enzyme can be obtained from the dependence of Vo/Vi on [I] shown in the following equation.

Sequence of purified human Factor XIa (P03951 388-625): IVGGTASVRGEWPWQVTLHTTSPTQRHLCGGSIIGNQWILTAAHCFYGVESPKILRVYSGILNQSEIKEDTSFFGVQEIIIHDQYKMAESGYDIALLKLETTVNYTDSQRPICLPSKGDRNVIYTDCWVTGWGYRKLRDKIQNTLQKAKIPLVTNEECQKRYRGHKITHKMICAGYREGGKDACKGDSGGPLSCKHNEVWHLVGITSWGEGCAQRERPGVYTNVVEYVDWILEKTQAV
Sequence of purified human Factor XIa (P03951 19-387 partner): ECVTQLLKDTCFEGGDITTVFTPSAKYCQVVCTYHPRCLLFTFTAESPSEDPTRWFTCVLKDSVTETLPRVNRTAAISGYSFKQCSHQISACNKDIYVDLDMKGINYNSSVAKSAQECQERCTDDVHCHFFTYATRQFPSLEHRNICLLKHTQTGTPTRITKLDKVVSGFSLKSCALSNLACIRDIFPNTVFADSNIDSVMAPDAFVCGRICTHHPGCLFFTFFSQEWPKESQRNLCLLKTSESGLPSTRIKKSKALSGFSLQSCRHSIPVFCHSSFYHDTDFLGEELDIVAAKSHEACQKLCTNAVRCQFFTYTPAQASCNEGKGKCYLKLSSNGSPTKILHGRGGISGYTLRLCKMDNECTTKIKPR

SMILES	pKi
COC(=O)Nc1ccc2c(c1)NC(=O)CCCCC(c1ccc(-c3c(F)ccc(Cl)c3F)c[n+]1[O-])c1cnn-2c1 (racemic) [Example 162, (Z)-5-(3-chloro-2,6-difluorophenyl)-2-(2^5-((methoxycarbonyl)amino)-4-oxo-1^1H-3-aza-1(1,4)-pyrazola-2(1,2)-benzenacyclononaphane-9-yl)pyridine 1-oxide]	8.17
O=C1CCCCC(c2ccc(-c3cc(Cl)ccc3-n3cnnn3)cn2)c2nc(c[nH]2)-c2cc(F)ccc2N1 (single isomer, unassigned) [Example 10-a, (Z)-9-(5-(5-chloro-2-(1H-tetrazol-1-yl)phenyl)pyridin-2-yl)-2^5-fluoro-1^1H -3-aza-1(4,2)-imidazola-2(1,2)-benzenacyclononaphan-4-one]	7.08
COC(=O)Nc1ccc2c(c1)NC(=O)C(C)CCCC(c1ccc(-c3c(F)ccc(Cl)c3F)c[n+]1[O-])c1cccc-2c1 (single isomer, unassigned) [Example 50-c, 5-(3-chloro-2,6-difluorophenyl)-2-(2^4-((methoxycarbonyl)amino)-5-methyl-4-oxo-3-aza-1(1,3),2(1,2)-dinenzenacyclononaphane-9-yl)pyridine 1-oxide]	6.57
COC(=O)Nc1ccc2c(c1)NC(=O)C(C)CCCC(c1ccc(-c3c(F)ccc(Cl)c3F)c[n+]1[O-])c1cccc-2c1 (single isomer, unassigned) [Example 50-d, 5-(3-chloro-2,6-difluorophenyl)-2-(2^4-((methoxycarbonyl)amino)-5-methyl-4-oxo-3-aza-1(1,3),2(1,2)-dinenzenacyclononaphane-9-yl)pyridine 1-oxide]	6.68
COC(=O)Nc1ccc2c(c1)NC(=O)CCCC[C@H](c1ccc(-c3c(F)ccc(Cl)c3F)c[n+]1[O-])c1cc(F)cc-2c1 (single isomer, unassigned) [Example 67]	9.26
O=C(C1CCCCC(c2ccc(-c3cc(Cl)ccc3-n3cnnn3)c[n+]2[O-])c2cccc(c2)-c2cc(F)ccc2N1)N1CCCC1 (single isomer, unassigned) [Example 79-a, 5-(5-Chloro-2-(1H-tetrazol-1-yl)phenyl)-2-(2^5-fluoro-4-(pyrrolidine-1-carbonyl)-3-aza-1(1,3),2(1,2)-dibenzenacyclononaphane-9-yl)pyridine 1-oxide]	7.32
COC(=O)Nc1cc(F)c2c(c1)NC(=O)C(C)CCCC(c1ccc(-c3c(F)ccc(Cl)c3F)c[n+]1[O-])c1cccc-2c1 (single isomer, unassigned) [Example 85-a, 5-(3-Chloro-2,6-difluorophenyl)-2-(2^6-fluoro-2^4-((methoxycarbonyl)amino)-5-methyl-4-oxo-3-aza-1(1,3),2(1,2)-dibenzenacyclononaphane-9-yl)pyridine 1-oxide]	< 6.06
COC(=O)Nc1cc(F)c2c(c1)NC(=O)C(C)CCCC(c1ccc(-c3c(F)ccc(Cl)c3F)c[n+]1[O-])c1cccc-2c1 (single isomer, unassigned) [Example 85-d, 5-(3-Chloro-2,6-difluorophenyl)-2-(2^6-fluoro-2^4-((methoxycarbonyl)amino)-5-methyl-4-oxo-3-aza-1(1,3),2(1,2)-dibenzenacyclononaphane-9-yl)pyridine 1-oxide]	6.80
COC(=O)Nc1ccc2c(c1)NC(=O)C(C)CCCC(c1ccc(-c3c(F)ccc(Cl)c3F)c[n+]1[O-])c1ccc(F)c-2c1 (single isomer, unassigned) [Example 86-b, 5-(3-Chloro-2,6-difluorophenyl)-2-(1^6-fluoro-2^4-((methoxycarbonyl)amino)-5-methyl-4-oxo-3-aza-1(1,3),2(1,2) -dibenzenacyclononaphane-9-yl)pyridine 1-oxide]	6.11
COC(=O)Nc1ccc2c(c1)NC(=O)C(C)CCCC(c1ccc(-c3c(F)ccc(Cl)c3F)c[n+]1[O-])c1ccc(F)c-2c1 (single isomer, unassigned) [Example 86-c, 5-(3-Chloro-2,6-difluorophenyl)-2-(1^6-fluoro-2^4-((methoxycarbonyl)amino)-5-methyl-4-oxo-3-aza-1(1,3),2(1,2) -dibenzenacyclononaphane-9-yl)pyridine 1-oxide]	6.94
O=C1CCCCC(c2ccc(-c3c(-n4cc(C(=O)O)nn4)ccc(Cl)c3F)cn2)c2cc(ncc2F)-c2cc(F)ccc2N1 (single isomer, unassigned) [Example 91-a]	7.96
O=C1CCCCC(c2ccc(-c3c(F)ccc(Cl)c3F)c[n+]2[O-])c2nc(c[nH]2)-c2cc(C(=O)O)ccc2N1 (single isomer, unassigned) [Example 106-a, (Z)-2-(2^5-carboxy-4-oxo-1^1H-3-aza-1(4,2)-imidazola-2(1,2) -benzenacyclononaphane-9-yl)-5-(3-chloro-2,6-difluorophenyl)pyridine 1-oxide]	8.60
O=C1CCCCC(O)(c2ccc(-c3cc(Cl)ccc3-n3cnnn3)c[n+]2[O-])c2nc(c[nH]2)-c2cc(F)ccc2N1 (single isomer, unassigned) [Example 107-a, (Z)-5-(5-Chloro-2-(1H-tetrazol-1-yl)phenyl)-2-(2^5-fluoro-9-hydroxy-4-oxo-1^1H-3-aza-1(4,2)-imidazola-2(1,2)-benzenacyclononaphane-9-yl)pyridine 1-oxide]	7.34
CCOC(=O)Nc1ccc2c(c1)NC(=O)CCCC[C@H](c1ccc(-c3c(F)ccc(Cl)c3F)c[n+]1[O-])c1nc-2c(C)[nH]1 (single isomer, unassigned) [Example 134]	9.77
COC(=O)Nc1ccc2c(c1)NC(=O)CCCC[C@H](c1ccc(-c3c(-n4cc(C(F)(F)F)cn4)ccc(Cl)c3F)c[n+]1[O-])c1nc-2c(C)[nH]1 (single isomer, unassigned) [Example 135]	6.70
CCc1[nH]c2nc1-c1ccc(NC(=O)OC)cc1NC(=O)CCCC[C@@H]2c1ccc(-c2c(-n3cc(C(F)(F)F)cn3)ccc(Cl)c2F)c[n+]1[O-] (single isomer, unassigned) [Example 136]	6.77
COC(=O)Nc1ccc2c(c1)NC(=O)CCCC[C@H](c1ccc(-c3ccccc3-n3cc(C)cn3)c[n+]1[O-])c1nc-2c(C)[nH]1 (single isomer, unassigned) [Example 140]	7.40
COC(=O)Nc1ccc2c(c1)NC(=O)[C@H](C)CCC[C@@H](c1ccc(-c3c(F)cccc3F)c[n+]1[O-])c1nc-2c(C)[nH]1 (single isomer, unassigned) [Example 143-d]	7.73
COC(=O)Nc1ccc2c(c1)NC(=O)C[C@H]1C[C@@H]1C[C@H](c1ccc(-c3c(F)ccc(Cl)c3F)c[n+]1[O-])c1nc-2c(C)[nH]1 (single isomer, unassigned) [Example 154]	9.40
COC(=O)Nc1ccc2c(c1)NC(=O)C[C@H]1C[C@@H]1C[C@H](c1ccc(-c3c(F)cccc3F)c[n+]1[O-])c1nc-2c(C)[nH]1 (single isomer, unassigned) [Example 155]	7.94
C[C@@H]1CCC[C@@H](c2ccc(-c3cc(Cl)ccc3-n3cc(Cl)nn3)c[n+]2[O-])c2cccc(c2)-c2c(cnn2C(F)F)NC1=O (single isomer, unassigned) [Example 166-b]	6.71
C[C@H]1CCC[C@H](c2ccc(-c3cc(Cl)ccc3-n3cc(Cl)nn3)c[n+]2[O-])c2cccc(c2)-c2c(cnn2C(F)F)NC1=O (single isomer, unassigned) [Example 166-c]	8.03
C[C@H]1CCC[C@@H](c2ccc(-c3cc(Cl)ccc3-n3cc(Cl)nn3)c[n+]2[O-])c2cccc(c2)-c2c(cnn2C(F)F)NC1=O (single isomer, unassigned) [Example 166-d]	< 6.06
O=C1CCCC[C@H](c2ccc(-c3c(F)ccc(Cl)c3F)c[n+]2[O-])c2cccc(c2)-c2c(cnn2C(F)F)N1 (single isomer, unassigned) [Example 171]	< 6.06
C[C@H]1CCC[C@H](c2ccc(-c3ccccc3-n3cc(Cl)nn3)c[n+]2[O-])c2cccc(c2)-c2c(cnn2C(F)F)NC1=O (single isomer, unassigned) [Example 172-b]	7.92
O=C1CCCC[C@@H](c2ccc(-c3cc(Cl)ccc3-n3cnnn3)cn2)c2cccc(c2)-c2cc(F)ccc2N1 [Example 1-b, (R)-9-(5-(5-Chloro-2-(1H-tetrazol-1-yl)phenyl)pyridin-2-yl)-2^5-fluoro-3-aza-1(1,3),2(1,2)-dibenzenacyclononaphan-4-one]	6.30
O=C1CCCC[C@@H](c2ccc(-c3cc(Cl)ccc3-n3cnnn3)c[n+]2[O-])c2cccc(c2)-c2cc(F)ccc2N1 [Example 2-b, (R) 5-(5-chloro-2-(1H-tetrazol-1-yl)phenyl)-2-(2^5-fluoro-4-oxo-3-aza-1(1,3),2(1,2)-dibenzenacyclononaphane-9-yl)pyridine 1-oxide]	7.08
COC(=O)Nc1ccc2c(c1)NC(=O)CCCCC(c1ccc(-c3c(F)ccc(Cl)c3F)cn1)c1cccc-2c1 (stereo not shown) [Example 12, methyl (9-(5-(3-chloro-2,6-difluorophenyl)pyridin-2-yl)-4-oxo-3-aza-1(1,3),2(1,2)-dibenzenacyclononaphane-2^4-yl)carbamate]	6.23
